{"source": "patent US10092537B2", "about": "“Use for PAI-1 inhibitor” (RENASCIENCE CO., LTD., priority 2013, dated 2018)", "key": {"hematopoietic stem cells [1]": {"tested_on": "hematopoietic stem cells", "assay": "Bone-marrow transplanted mice, compound c, G-CSF and G-CSF neutralizing antibody (Experimental Example 13)", "format": "in vivo", "conditions": "for G-CSF concentration in the plasma and bone-marrow fluids: 1 week after transplantation", "protocol": "Bone-marrow transplanted mice were prepared in the same manner as in Experimental Example 4, and compound c, G-CSF, and G-CSF neutralizing antibody were examined for the effects. Specifically, the bone-marrow transplanted mice were divided into 5 groups as shown below (each group: n=5) and orally administered respective test drugs.\nGroup 1: vehicle group (physiological saline was administered via gavage) (“v group”)\nGroup 2: compound c group (compound c [10 mg/kg/day] was administered via gavage) (“TM group”)\nGroup 3: G-CSF group (G-CSF [150 μg/kg/day] was administered via gavage) (“G group”)\nGroup 4: vehicle+anti-G-CSF group (physiological saline+G-CSF neutralizing antibody [500 μg/kg/day] was administered via gavage) (“v+Ab group”)\nGroup 5: compound c+anti-G-CSF group (compound c [500 μg/kg/day]+G-CSF neutralizing antibody [500 μg/kg/day] was administered via gavage) (“TM+Ab group”)\nConcurrently with bone-marrow transplantation, administration of physiological saline (vehicle) to the vehicle group via gavage was started, and the administration continued for 5 consecutive days. Concurrently with bone-marrow transplantation, administration of compound c (10 mg/kg/day) to the compound c group via gavage was started, and the administration continued for 5 consecutive days. Concurrently with bone-marrow transplantation, subcutaneous administration of G-CSF (150 μg/kg/day) to the G-CSF group was started, and the administration continued for 5 consecutive days. Concurrently with bone-marrow transplantation, gavage administration of physiological saline and subcutaneous administration of G-CSF neutralizing antibody (R&D) (500 μg/kg/day) to the vehicle+anti-G-CSF group were started, and the administration continued for 5 consecutive days. Concurrently with bone-marrow transplantation, gavage administration of compound c (10 mg/kg/day) and intraperitoneal administration of G-CSF neutralizing antibody (R&D) (500 μg/kg/day) to the compound c+anti-G-CSF group were started, and the administration continued for 5 consecutive days.\n1 week after bone-marrow transplantation, plasma and bone-marrow fluids were collected from mice of each group (v group, TM group, G group, v+Ab group, and TM+Ab group), and the G-CSF concentration (pg/ml) was measured by ELISA. The following were determined in accordance with an ordinary procedure: (B) G-CSF concentration (pg/ml) in bone-marrow fluids, (C) total number of mononucleic cells (×10E7 cell) in the bone marrow, (D) proportion (%) of LSK CD34 negative cells in the bone marrow, (E) total number of LSK CD34 negative cells in the bone marrow, (F) proportion (%) of Lin-SLAM cells in the bone marrow, and (G) total number of Lin-SLAM cells in the bone marrow."}, "human PAI-1": {"target": "human PAI-1 (Homo sapiens, UniProt P05121)", "sequence (P05121 24-402)": "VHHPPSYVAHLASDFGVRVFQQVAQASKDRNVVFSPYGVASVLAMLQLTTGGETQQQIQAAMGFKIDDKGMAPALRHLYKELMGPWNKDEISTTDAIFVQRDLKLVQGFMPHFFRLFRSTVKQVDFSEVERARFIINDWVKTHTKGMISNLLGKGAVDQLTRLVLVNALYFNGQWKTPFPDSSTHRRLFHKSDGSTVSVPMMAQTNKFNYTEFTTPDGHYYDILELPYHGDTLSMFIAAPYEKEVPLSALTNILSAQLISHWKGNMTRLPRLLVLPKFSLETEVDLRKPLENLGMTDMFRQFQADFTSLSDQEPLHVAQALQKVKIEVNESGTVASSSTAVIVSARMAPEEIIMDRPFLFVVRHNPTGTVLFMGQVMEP", "assay": "Measurement of PAI-1 inhibitory activity of compound group 1 (t-PA, S-2288 chromogenic substrate)", "conditions": "read-out: PAI-1 activity %", "procedure": "Subsequently, human-derived tissue plasminogen activator (t-PA) (manufactured by American Diagnostica, Inc. (USA); the same applies hereinafter) adjusted to 0.35 pmol/μL was added thereto, and the mixture was further incubated at 37° C. for 15 minutes."}, "[2]": {"assay": "2-week repeated-dose toxicity test using rat (Experimental Example 6)", "format": "in vivo, Sprague-Dawley rats", "conditions": "200, 600 and 2,000 mg/kg/day oral, repeatedly for 2 weeks; male and female rats", "protocol": "Compound a was orally administered in 0 (0.5 w/v % carmellose sodium solution), 200, 600 and 2,000 mg/kg/day dosages to a male rat group and a female rat group each containing 5 Sprague-Dawley rats (Crl:CD(SD), 6-week old at the onset of administration) repeatedly for 2 weeks, and a toxicity test was conducted."}, "hematopoietic stem cells [3]": {"tested_on": "hematopoietic stem cells", "assay": "Cell cycle (Ki-67, BrdU) and apoptosis (Annexin V) of bone-marrow cells 1 week after bone-marrow transplantation (Experimental Example 9)", "format": "in vivo, mice", "protocol": "In accordance with Experimental Example 7 (1), bone-marrow transplantation was conducted, and after the transplantation, physiological saline (control group), tPA (tPA-administered group), or compound a (compound a-administered group) was administered.\n1 week after bone-marrow transplantation, the bone marrow was collected, and Ki-67 protein, which is a cell division marker, was immunostained with anti-Ki-67-FITC antibody (BD Bioscience) to analyze the cells in the cell-division cycle by FACSCalibur.\nSubsequently, the number of Ki-67 positive cells in the cells of LSK fraction was examined to confirm that the proliferation of hematopoietic stem cells is promoted by compound a.\nIn addition, to more accurately detect the cells that moved to the S phase, 5-bromo-2-deoxyuridine (BrdU)-FITC (BD Pharmingen) was administered to the control group, tPA group, and compound a-administered group 1 week after bone-marrow transplantation, 3 hours before the collection of bone marrow. 6 mice were used for each group.\nBecause BrdU is a thymine derivative, BrdU, substituting for thymine, is incorporated into genomic DNA or the like during DNA replication. BrdU more specifically reflects the S phase than Ki-67 protein.\n1 week after bone-marrow transplantation, bone marrow was collected from the control group, tPA group, and compound a-administered group (6 mice for each group), and Annexin V, which appears specifically in apoptosis, was detected with anti-Annexin V antibody immunostaining."}, "CML cells": {"tested_on": "CML cells", "assay": "Chronic myelogenous leukemia model mice, compound a alone, imatinib, combination (Experimental Example 16)", "format": "in vivo", "conditions": "day 10 to day 16", "protocol": "Group 1: placebo group (physiological saline was administered via gavage)\nGroup 2: compound a group (compound a [100 mg/kg/day] was administered via gavage)\nGroup 3: imatinib group (imatinib [150 mg/kg/day] was administered via gavage)\nGroup 4: imatinib+compound a group (imatinib [150 mg/kg/day] and compound a [100 mg/kg/day] were administered via gavage)\n10 days after (day 10) the day on which CML cells were intravenously inoculated (day 0), administration of test drugs to the groups was started. The placebo group, the compound a group, and the imatinib group were administered the respective test drugs once a day from day 10 to day 16 (7 doses in total). The imatinib+compound a group was administered imatinib once a day from day 10 to day 16 (7 doses in total), and also administered compound a once a day from day 10 to day 16 (7 doses in total)."}, "[4]": {"assay": "Single-dose toxicity test using rat (Experimental Example 6)", "conditions": "500, 1,000, and 2,000 mg/kg oral gavage"}, "hematopoietic stem cells [5]": {"tested_on": "hematopoietic stem cells", "assay": "Fibrinolytic pathway activation and bone-marrow regeneration after lethal radiation (9Gy) and bone-marrow transplantation, compound a versus recombinant tPA (Experimental Example 7)", "procedure": "Within 4 hours, 1.0×10^6 bone-marrow mononucleic cells (BM MNC) were intravenously inoculated into retro-orbital plexus. Concurrently with transplantation, compound a (dosage 100 mg/kg) or recombinant tPA (dosage 100 mg/kg, Eisai Co., Ltd) were administered as a test compound via oral gavage, and the test compound was orally administered for 5 consecutive days (administered group). As a control test, instead of the test compound, physiological saline (vehicle) used for dissolving compound a was orally administered in the same manner (control group).\nBlood was collected 2 and 7 days after bone-marrow transplantation, and the active PAI-1 level (ng/mL), active tissue-type plasminogen activator (active tPA), plasmin level (ng/mL), cKit ligand, and total MMP-9 (Matrix metalloprotein-9) in the plasma were measured."}, "[6]": {"conditions": "compound c + G-CSF neutralizing antibody 500 μg/kg/day"}, "[7]": {"conditions": "2 and 7 days after transplantation, among control, tPA and compound a groups"}, "[8]": {"conditions": "tPA group compared with control group, compound a group compared with tPA group"}}}
{"smiles": "O=C(Nc1ccc(Cl)cc1C(=O)O)c1cccc(-c2ccccc2)c1", "note": "[Example 4, 2-[(biphenyl-3-ylcarbonyl)amino]-5-chlorobenzoic acid]", "values": [{"measurement": "number of BM MNC", "setting": "hematopoietic stem cells [1]; [6]", "result": "did not exhibit a decrease"}, {"measurement": "proportion and number of LSK-CD34 negative cells", "setting": "hematopoietic stem cells [1]; [6]", "result": "not decreased"}, {"measurement": "G-CSF concentration in the plasma and bone-marrow fluids", "setting": "hematopoietic stem cells [1]; [6]", "result": "an increase in G-CSF in neither plasma nor bone-marrow fluids"}, {"measurement": "G-CSF concentration in the plasma and bone-marrow fluids", "setting": "hematopoietic stem cells [1]; single agents: compound c 10 mg/kg/day gavage, G-CSF 150 μg/kg/day, G-CSF neutralizing antibody 500 μg/kg/day with vehicle, versus vehicle", "result": "significant increases"}, {"measurement": "proportion and number of LSK CD34 negative cells", "setting": "hematopoietic stem cells [1]; single agents: compound c 10 mg/kg/day, G-CSF 150 μg/kg/day, G-CSF neutralizing antibody 500 μg/kg/day with vehicle, versus vehicle group", "result": "increased"}, {"measurement": "number of BM MNC", "setting": "hematopoietic stem cells [1]; single agents: compound c 10 mg/kg/day, G-CSF 150 μg/kg/day, versus vehicle group", "result": "more increased"}, {"measurement": "activity at 20 µM", "setting": "human PAI-1", "result": 47.7, "unit": "%"}, {"measurement": "activity at 50 µM", "setting": "human PAI-1", "result": 7.6, "unit": "%"}]}
{"smiles": "O=C(COCC(=O)N1CCN(C(c2ccccc2)c2ccccc2)CC1)Nc1ccc(Cl)cc1C(=O)[O-].[Na+]", "note": "[Example 30 (compound group 2), 2-(2-(2-(4-benzhydrylpiperazin-1-yl)-2-oxoethoxy)acetamido)-5-chlorobenzoic acid sodium salt]", "values": [{"measurement": "change in general state, weight, food intake, urine test, hematological test, blood chemical test, pathological test", "setting": "[2]", "result": "no obvious change"}, {"measurement": "proportion of cells that were induced apoptosis (Annexin V)", "setting": "hematopoietic stem cells [3]; compared with control group", "result": "decrease"}, {"measurement": "cells in the S phase (BrdU incorporated into LSK cells)", "setting": "hematopoietic stem cells [3]; control group 18.1%", "result": 21.4, "unit": "%"}, {"measurement": "Ki-67 positive, cells classified into the LSK fraction taken as 100%", "setting": "hematopoietic stem cells [3]; control group 43.3%", "result": 63.9, "unit": "%"}, {"measurement": "cell count of cells at the S-G2-M phase (Ki-67) in bone-marrow mononucleic cells", "setting": "hematopoietic stem cells [3]; control group 44.2%", "result": 64.2, "unit": "%"}, {"measurement": "cell count of cells at the G0/G1 phase (Ki-67) in bone-marrow mononucleic cells", "setting": "hematopoietic stem cells [3]; control group 55.8%", "result": 35.8, "unit": "%"}, {"measurement": "survival", "setting": "CML cells; compound a 100 mg/kg/day alone, all of the subject mice, as placebo", "result": "died during the period from day 10 to day 20"}, {"measurement": "survival rate on day 50", "setting": "CML cells; imatinib 150 mg/kg/day + compound a 100 mg/kg/day via gavage", "result": 60, "unit": "%"}, {"measurement": "autopsy findings", "setting": "[4]; after 2 weeks", "result": "no particular abnormality"}, {"measurement": "abnormality during 2-week monitoring", "setting": "[4]; male and female rats", "result": "None of the male and female rats showed abnormality"}, {"measurement": "toxicity given in a single dose", "setting": "[4]; male and female rats, monitored 2 weeks", "result": "low"}, {"measurement": "level of cKitL in plasma", "setting": "hematopoietic stem cells [5]; [7]", "result": "highest level"}, {"measurement": "level of plasmin in plasma", "setting": "hematopoietic stem cells [5]; [7]", "result": "highest level"}, {"measurement": "level of total MMP-9 in plasma", "setting": "hematopoietic stem cells [5]; [7]", "result": "highest level"}, {"measurement": "level of active tPA in plasma", "setting": "hematopoietic stem cells [5]; 7 days after transplantation, among control, tPA and compound a groups", "result": "highest level"}, {"measurement": "expression of active PAI-1 in the plasma", "setting": "hematopoietic stem cells [5]; compound a or recombinant tPA 100 mg/kg, 5 consecutive days, 2 and 7 days after bone-marrow transplantation", "result": "did not exhibit an expression of active PAI-1"}, {"measurement": "survival rate on day 28 from bone-marrow transplantation", "setting": "hematopoietic stem cells [5]; lethal radiation 9Gy, 100 mg/kg, 5 consecutive days, n=15, control group 20%", "result": 70, "unit": "%"}, {"measurement": "platelet count in the peripheral blood", "setting": "hematopoietic stem cells [5]; [8]", "result": "significantly increased"}, {"measurement": "white blood cell count in the peripheral blood", "setting": "hematopoietic stem cells [5]; [8]", "result": "significantly increased"}]}
